Test systems include 786-0; A498; CCRF-CEM; HCT-15; IGROV-1; K562; KM12; OVCAR-5; SF-295; U-251; UO-31; RPMI-8226; SK-MEL-2; SK-OV-3.
Assay in all cases: inhibition of tumour cell growth, NCI panel, 48 h

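1) Cells in 96-well plates. 2) Compound, 48 h, 5 concentrations. 3) Linear interpolation between surrounding doses. 4) Unreached endpoint = highest concentration. The concentration for 50% growth inhibition is given as GI50.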 Active and inactive are the calls of the source. Cut-off read from the data, not from the text of the source: active = GI50 up to about 1.1 µM and inactive = higher.

As to `COc1ccccc1/N=N/c1c(-c2ccccc2)nn(C(=O)CC(=O)Nc2cccc(C)c2)c1-c1ccccc1`, the GI50 is 43.1 µM (inactive) in the assay on 786-0; 40 µM (inactive) with A498; 15.2 µM (inactive) in the assay with CCRF-CEM; 21.1 µM with HCT-15; 24.7 µM (inactive) with IGROV-1; 15.7 µM (inactive) in the assay on K562. The GI50 is 26.1 µM (inactive) with KM12; 36.3 µM (inactive) in the assay on OVCAR-5; 28.2 µM (inactive) in the assay on SF-295; 20 µM (inactive) in the assay on U-251; 19.7 µM (inactive) in the assay with UO-31.

As for `NC(=S)N/N=C/c1cn(CCCl)c2ccccc12`, the GI50 in the assay on 786-0 was 43.7 µM (inactive); with CCRF-CEM it was 20.7 µM (inactive); in the assay on HCT-15, 8.69 µM; in the assay on IGROV-1, > 100 µM (inactive); in the assay on K562 it was 8.05 µM (inactive); in the assay with KM12, 32.7 µM (inactive). Also, the GI50 in the assay on OVCAR-5 was 3.81 µM (inactive); in the assay on RPMI-8226, 14.2 µM (inactive); with SF-295, 13.6 µM (inactive); in the assay with SK-MEL-2, 72.1 µM (inactive); with SK-OV-3, > 100 µM (inactive); in the assay on UO-31, 16.9 µM (inactive).

In the case of `O=C1C2=C(CCCCC2)C2CCCCC12O` (stereo not drawn), the GI50 with 786-0, in the assay on CCRF-CEM, with IGROV-1, with K562, with KM12 and with RPMI-8226 was > 100 µM (inactive) in each case. Moreover, the GI50 with SF-295, in the assay on SK-MEL-2, in the assay on SK-OV-3, with U-251 and in the assay on UO-31 was > 100 µM (inactive) throughout.

With `c1ccc(COCC2OC3c4ccccc4COC3C2OCc2ccccc2)cc1` (stereo not drawn), the GI50 in the assay on 786-0 is > 100 µM (inactive); with HCT-15, 69.5 µM; with IGROV-1, > 100 µM (inactive); in the assay with K562, 57.5 µM (inactive); with KM12, > 100 µM (inactive); with OVCAR-5 it was > 100 µM (inactive). Besides, the GI50 in the assay on RPMI-8226 is 63 µM (inactive); with SF-295 it was 77.3 µM (inactive); in the assay on SK-MEL-2, > 100 µM (inactive); in the assay on SK-OV-3, > 100 µM (inactive); in the assay on U-251, > 100 µM (inactive); in the assay on UO-31, > 100 µM (inactive).

Regarding `CC1OC(n2cc(C(F)(F)F)c(=O)[nH]c2=O)C=CC1=O` (stereo not drawn), the GI50 in the assay with 786-0 is 18.4 µM (inactive); in the assay on HCT-15, 20.7 µM; in the assay with IGROV-1 it was 20 µM (inactive); in the assay on K562, 27.5 µM (inactive); in the assay on KM12, 18.5 µM (inactive); in the assay on OVCAR-5 it was 19.4 µM (inactive). Besides, the GI50 was 13.5 µM (inactive) with RPMI-8226; 27.6 µM (inactive) in the assay on SF-295; 18.2 µM (inactive) with SK-MEL-2; 19.6 µM (inactive) in the assay on SK-OV-3; > 10 µM (inactive) with U-251; 18.2 µM (inactive) in the assay on UO-31.

Consider `COC(=O)C1=C(C(=O)OC)C2C(C)=CC(C)=CN2C(C#N)=C(SC)S1` (stereo not drawn), for which the GI50 is 30.8 µM (inactive) in the assay on 786-0; 17.4 µM (inactive) with CCRF-CEM; 19.7 µM in the assay on HCT-15; > 10 µM (inactive) in the assay with IGROV-1; 20.7 µM (inactive) in the assay with K562; 35.3 µM (inactive) in the assay with OVCAR-5. In addition, the GI50 in the assay on RPMI-8226 is 21.6 µM (inactive); with SF-295, 31 µM (inactive); in the assay with SK-MEL-2 it was 23.1 µM (inactive); in the assay on SK-OV-3 it was 46.3 µM (inactive); with U-251, 31 µM (inactive); in the assay with UO-31, 12.7 µM (inactive).

Turning to `CCOC(=O)/C(C#N)=C1/C(O)=C(C(=O)OC)C(C(=O)OC)=C1C(=O)OC.c1ccncc1`, the GI50 is > 100 µM (inactive) in the assay on 786-0; > 100 µM (inactive) in the assay on CCRF-CEM; more than 100 µM in the assay on HCT-15; > 100 µM (inactive) in the assay with IGROV-1; > 100 µM (inactive) in the assay on K562; > 100 µM (inactive) in the assay on KM12. Besides, the GI50 in the assay on OVCAR-5, in the assay on RPMI-8226, with SF-295, in the assay on SK-MEL-2, in the assay on SK-OV-3 and in the assay with U-251 was > 100 µM (inactive) in each case. The GI50 in the assay on UO-31 is > 100 µM (inactive).
